Test results from patent US20230355598A1, “PYRROLIDINE COMPOUNDS TO TREAT XERODERMA PIGMENTOSUM” (Clinuvel (UK) Ltd., priority 2020, published 2023).

Test system: Melanocytes
Test: Measurement of UV-induced apoptosis by Annexin Va staining
Format: cell-based
Details: melanocytes in medium lacking BPE; treated 4 days prior to and 24 h after UV dose 105 mJ/cm^2; vs control
Procedure: Melanocytes were treated with the different concentrations of the pyrrolidine compound for 4 days prior to, and 24 h after exposure to a UV dose (105 mJ/cm^2), then stained for Annexin Va staining. The data were collected as percent increase above control, with triplicate dishes included in each group. Effect of the pyrrolidine compound vs control on the UV-induced apoptosis were determined in melanocyte strains. Floating as well as attached cells were harvested and stained for Annexin V, and analyzed by flow cytometry.

## COC[C@H]1CN(C(=O)[C@]2(F)CN(C3CCCC3)C[C@H]2c2ccc(OC)cc2)C[C@@H]1c1ccc(C(F)(F)F)cc1N1CCC(C(=O)O)CC1 [Dersimelagon, 1-{2-[(3S,4R)-1-{[(3R,4R)-1-cyclopentyl-3-fluoro-4-(4-methoxyphenyl)pyrrolidin-3-yl]carbonyl}-4-(methoxymethyl)pyrrolidin-3-yl]-5-(trifluoromethyl)phenyl}piperidine-4-carboxylic acid]
  Effect on UV-induced apoptosis (Annexin V staining, flow cytometry): beneficial anti-apoptotic effects
